The source of these data is publication PMC4604170 (PLoS ONE, 2015).

The conditions of data set [1]: no data for the cornea; cited from earlier work. The text has this: It may therefore bind to lectin-like proteins of the stromal extracellular matrix, reducing its bioavailability fur ...
In data set [2] the test system is Staphylococcus aureus ATCC29213. Description: Effectiveness of prophylaxis once the corneal MIC was achieved (inoculation after 16 days of drops). Type of data set: in vivo, New Zealand White rabbits. Particulars: inoculation after 16 days of vancomycin 1.4% drops 5 times/day; 3 rabbits with titanium film implant. The procedure: Following bacterial inoculation, development of infection was assessed clinically with SLP and AS-OCT imaging.

The nature of data set [3]: Corneal and aqueous humour vancomycin quantification by LC-MS. Type of data set: in vivo, New Zealand White rabbits. Conditions: for Vancomycin in the aqueous humour: rabbit; for Vancomycin in the aqueous humour / Corneal vancomycin concentration / Aqueous humour vancomycin concentration: LC-MS; for Corneal vancomycin concentration / Aqueous humour vancomycin concentration: after 4 days of vancomycin 1.4% drops 5 times/day; for Period of drop instillation required to achieve MIC in the cornea: vancomycin 1.4% drops five times a day. As to the method: Prior to starting the antibiotic regimen, the cornea of the right eye had complete epithelial debridement following application of 20% alcohol for 60 seconds, whereas the epithelium of the left cornea was not debrided.
Aqueous humour samples (120–150 μL) were extracted with three equivalents of methanol (Merck, Darmstadt, Germany). The samples were shaken for 5 min at 1200 rpm (20°C) and centrifuged for 10 min at 16,000 g (4°C). The supernatants were transferred to fresh tubes and dried in a vacuum concentrator. Cornea samples were cut and ground with a pestle while frozen. They were next homogenized on ice with 300 μL of 3:1 methanol/water with 0.1% formic acid (Sigma Aldrich, St. Louis, MO, USA) for 1 min. The homogenates were then spun down briefly on a capsule centrifuge and supernatants transferred to fresh tubes. The residues were homogenized and spun down a second time. The extracts were combined and centrifuged for 10 min at 16,000 g (4°C). The supernatants were transferred to fresh tubes and dried in a vacuum concentrator. Samples were reconstituted in water (Ultrapure water, Millipore purification unit) and centrifuged for 5 min at 16,000 g (10°C) before transferring to autosampler vials for LC-MS/MS analysis.
Chromatographic separation was performed on a Waters 2695 Separations Module (Milford, MA, USA) with a Thermo Scientific Hypersil Gold C18 column (Whaltham, MA, USA) (2.1 × 50 mm, 3 μm). The mobile phase was A: 0.1% formic acid in water and B: 0.1% formic acid in acetonitrile. The gradient profile was 2% B at 0 min, 25% B at 6 min, 90% B from 6.5 to 8.5 min and 2% B from 9 to 13 min. The flow rate was 0.3 ml/min. The autosampler and column heater temperatures were maintained at 10 and 30°C, respectively. Detection was performed by an AB Sciex API 2000 triple quadrupole mass spectrometer (Concord, Canada) with an electrospray ionization source operating in the positive ionization mode. The ion source voltage was set to 5 kV.

SMILES strings stand for the structures. Where only a bound is given, the exact number is not on record here.

In the case of `CN[C@H](CC(C)C)C(=O)N[C@H]1C(=O)N[C@@H](CC(N)=O)C(=O)N[C@H]2C(=O)N[C@H]3C(=O)N[C@H](C(=O)N[C@H](C(=O)O)c4cc(O)cc(O)c4-c4cc3ccc4O)[C@H](O)c3ccc(c(Cl)c3)Oc3cc2cc(c3O[C@@H]2O[C@H](CO)[C@@H](O)[C@H](O)[C@H]2O[C@H]2C[C@](C)(N)[C@H](O)[C@H](C)O2)Oc2ccc(cc2Cl)[C@H]1O` [vancomycin], the Binding to proteins entry in data set [1] is given as “moderate”. The “Rabbits showing evidence of corneal infection by day 2 post-inoculation” value in data set [2] is listed as 2 of the 3. In addition, the “Vancomycin in the aqueous humour” value is listed as “not detected” in data set [3] (after 2 days of vancomycin 1.4% drops 5 times/day), “below the level of quantification” in data set [3] (day 10 of vancomycin 1.4% drops 5 times/day) and “below the level of quantification” in data set [3] (day 16 of vancomycin 1.4% drops 5 times/day). Besides, the Corneal vancomycin concentration was 2.57 ± 0.40 µg/mL in data set [3] (with epithelial removal (right eye, 20% alcohol 60 seconds), 3 rabbits, p = 0.115) and 1.36 ± 0.45 µg/mL in data set [3] (without epithelial removal (left eye), 3 rabbits without implant). Besides, the “Aqueous humour vancomycin concentration” value in data set [3] (with epithelial removal, p = 0.063) amounted to 0.43 ± 0.15 µg/mL; in data set [3] (without epithelial removal) it was 0.04 ± 0.005 µg/mL. The “Period of drop instillation required to achieve MIC in the cornea” value in data set [3] (100% compliance, epithelium not debrided) was 16 days; in data set [3] (epithelium debrided) it was at most 4 days.
